Experimental data as given in US20250304622A1, “SHORT APOLIPOPROTEIN E MIMETIC PEPTIDES AND METHODS OF USE” (The United States of America, as represented by the …, priority 2022, published 2025).
Numbered stars: 1 amine (or outer) side, 2 acyl side, 3 side chain; on linkers, the order of the positions; unused ones are H or OH. Bridge positions count the residues as written; N and C are the ends. Square brackets hold non-standard residues; d marks the D form. Primed or numbered codes have the meaning given here. * marks the point of attachment. B5 = bis-pentenylglycine, C=CCCCC(CCCC=C)(N[*:1])C(=O)[*:2]; R8 = C=CCCCCCC[C@@](C)(N)C(=O)O; S8 = C=CCCCCCC[C@](C)(N)C(=O)O; αMeL = CC(C)C[C@](C)(N)C(=O)O; Octanoyl′ = not defined here; S5 = C=CCCC[C@](C)(N)C(=O)O; Myristyl = CCCCCCCCCCCCCC*; Octanoyl = CCCCCCCC(=O)*

Experiments:
[1] = tested on: Mouse Hepatitis Virus (MHV); assay: MHV-GFP replication in HeLa mCC1a cells; format: cell-based; conditions: 15 μM peptide, 16 hours, FIG. 11
Text: Mouse Hepatitis Virus (MHV) is a beta coronavirus that infects mice cells via the murine CEACAM1 receptor (mCC1a receptor). HeLa (human epithelium) cells that have been modified to express the mCC1a receptor can be infected with MHV. The recombinant MHV used in this experiment has been modified such that it contains additional nucleocapsid (N) protein segment which is N-terminally fused with a green fluorescence protein tag (GFP) (see Verheije et al., J. Virol. 84:11575-11579, 2010). When cells are infected with MHV, the MHV replicates generating more GFP and increasing the fluorescent signal.
HeLa mCC1a cells were cultured in a 96 well plate. Cells were infected for 2 hours with MHV-GFP at 37° C. Viral stock solution was diluted 40-fold. Stock was prepared by infecting HeLa cells with MHV-GFP for 3 days and by collecting cellular media. Cells were washed with PBS and treated with media (DMEM plus 10% FBS, 100 IU/ml penicillin G, […] streptomycin, 0.5 mg/ml G418) containing ApoE peptides (15 μM) or media without peptide and incubated for 16 hours at 37° C. Cells were washed with PBS and total GFP fluorescence (ex/em 488/520) in cells was measured on the plate using a fluorescence plate reader.

ApoE-ko mice = assay: Single dose study in ApoE-ko mice, plasma total cholesterol and triglycerides; format: in vivo; conditions: for plasma total cholesterol / plasma triglyceride levels: ApoE-ko mice, 4.6 mg/kg (2.5 μmol/kg) intravenous; for plasma total cholesterol: FIG. 10A; for plasma triglyceride levels: effect transient, FIG. 10B; for lowering of plasma total cholesterol: ApoE-KO mice, 2.5 μmol/kg i.v. single dose, FIG. 20A
Protocol: The effect of OctaC-E139-150 and OctaN-E139-150 peptides were tested in ApoE-ko mice. The mice were kept on a normal chow diet. At 3.5 months of age, 15 mice were divided into three groups of five mice each, as follows: 1) control group; 2) OctaC-E139-150 peptide group; and 3) OctaN-E139-150 peptide group. Peptides were dissolved in PBS at 1.5 mg/ml (810 μM OctaC-E139-150; 849 μM OctaN-E139-150). Mice were weighed one day before peptide administration and peptide amount was calculated for each mouse to receive 4.6 mg/kg peptide (2.5 μmol/kg). The calculated amount of 1.5 mg/ml peptide was placed in a syringe and normalized with PBS to 80 μl. The mice received intravenous injection of PBS (control) or the peptide. Blood samples were collected immediately prior to injection, and 1 hour, 3 hours, and 6 hours after injection. Blood was centrifuged at 3000 rpm at 4° C. for 20 minutes and plasma was separated (20-30 μl) and stored at 4° C. Plasma triglycerides and total cholesterol were measured the next day using L-type triglyceride M assay and The cholesterol E kit (Wako, FUJIFILM Medical Systems USA).
MyrN-E139-150 and OctaN-E139-150 peptides were tested in a single dose ApoE-KO mouse study. ApoE-KO mice (n=9) were divided into 3 groups: control group (PBS), n=3; MyrN-E139-150 (2.5 μmol/kg; 4.6 mg/kg), n=3; and OctaN-E139-150 (2.5 μmol/kg; 4.4 mg/kg), n=3. Mice were fed normal chow diet for the whole study. Peptides were injected i.v. and blood samples were collected at pre-injection and 1 h, 3 h, and 6 h after the injection of the peptides. Measurement of plasma total cholesterol and triglycerides was as described in Example 2. The peptides lowered plasma total cholesterol (FIG. 20A; 37% at 3 h; 29% at 6 h) and triglycerides (FIG. 20B; 30-50% at 1 h).

WT HepG2 cells [2] = assay: LDL uptake by heparinase treated WT HepG2 cells; format: cell-based; conditions: Heparinase I, II, and III pretreatment
Protocol: (§1) Involvement of heparan sulfate proteoglycans (HSPGs) in peptide-mediated LDL uptake was tested. WT HepG2 cell were pretreated with a mixture of Heparinase I, II, and III (IBEX Pharmaceuticals) to degrade heparan sulfate chains on the cell surface. Next, LDL uptake studies were performed with OctaC-E139-150-S and MyrN-E141-150-amL peptides (FIGS. 18A-18C). […] Similarly, heparinase treatment attenuated MyrN-E141-150-amL mediated LDL uptake in WT HepG2 cells (FIG. 18C).

LDLR-ko HepG2 cells = assay: LDL uptake by heparinase treated LDLR-KO HepG2 cells; format: cell-based; conditions: heparinase pretreatment, FIG. 18B
Protocol: as §1

WT HepG2 cells [3] = assay: Effect of heparin on peptide mediated LDL uptake in WT HepG2 cells; format: cell-based; conditions: 10 μM peptide, heparin 10 USP/ml, 1 h at 37° C., FIG. 19
Protocol: Fluorescently labeled LDL (Alexa Fluor 568-NHS ester) at 50 μg/ml final protein concentration was preincubated with or without 10 μM MyrN-E141-150-amL peptide for 30 min at 37° C. (solutions made in DMEM (no phenol red, no serum) with 0.1% BSA). To some LDL and some LDL/peptide samples, heparin was added (10 USP/ml final conc.; heparin, sodium injection from porcine intestinal mucosa (Fresenius Kabi USA, Lake Zurich, IL)). Mixtures were preincubated for additional 5 min at 37° C. Next, WT HepG2 cells were incubated with the LDL/peptide/heparin mixtures for 1 h at 37° C. Lipoprotein uptake was assessed by flow cytometry. Heparin diminished the effect of MyrN-E141-150-amL peptide on LDL uptake in the wild type HepG2 cells (FIG. 19).

LDLR-KO mice = assay: Single dose LDLR-KO mouse study, plasma total cholesterol; format: in vivo; conditions: 2.5 μmol/kg (4.6 mg/kg) i.v. single dose, after 3 h and 6 h of injection, FIG. 21A
Protocol: MyrN-E141-150-amL and OctaN-E141-150 were tested in a single dose LDLR-KO mouse study. LDLR-KO mice (n=9) were divided into 3 groups: control group (PBS), n=3; MyrN-E141-150-amL (2.5 μmol/kg; 4.6 mg/kg), n=3; and OctaN-E141-150 (2.5 μmol/kg; 4.4 mg/kg), n=3. Mice were fed normal chow diet for the whole study. Peptides were injected i.v. and blood samples were collected at pre-injection and 1 h, 3 h, 6 h and 24 h after the injection of the peptides. Measurement of plasma total cholesterol was as described in Example 2. MyrN-E141-150-amL lowered plasma total cholesterol around 15-30% after 3 h and 6 h of injection (FIG. 21A).

[4] = low peptide dose, FIGS. 18A, 18C

Substance | MHV-GFP fluorescence (viral replication) [1] | plasma total cholesterol (ApoE-ko mice) | plasma triglyceride levels (ApoE-ko mice) | effect of heparinase treatment on peptide mediated LDL uptake (WT HepG2 cells [2]; [4]) | lowering of plasma total cholesterol (ApoE-ko mice; at 3 h) | lowering of plasma total cholesterol (ApoE-ko mice; at 6 h) | also measured
Ac-RVR(S5)ASH(B5)RKLRKR(S8)LR-NH2 (Ac-RVR[S5]ASH[B5]RKLRKR[S8]LR-NH2; staple 8-15, 4-8) [E134-150-Stitch] | dramatic reductions |  |  |  |  |  | 
Ac-SH(R8)RKLRKR(S5)LR-Octanoyl (Ac-SH[R8]RKLRKR[S5]LR-{Octanoyl′}; staple 3-10) [OctaC-E139-150] | dramatic reductions | significantly decreased | significantly decreased | diminished low dose peptide effect on LDL uptake |  |  | effect of heparinase treatment on peptide mediated LDL uptake (WT HepG2 cells [2]; higher peptide concentrations, FIG. 18A): heparinase treatment had a lower effect; effect of heparinase treatment on peptide mediated LDL uptake (LDLR-ko HepG2 cells): showed similar results
Myristyl-(R8)RKLRKR(S5)L(alpha-methyl)R-NH2 (Myristyl-[R8]RKLRKR[S5][αMeL]R-NH2; staple 1-8; SMILES CCCCCCCCCCCCCCN[C@]1(C)CCCCCCC=CCCC[C@@](C)(C(=O)N[C@@](C)(CC(C)C)C(=O)N[C@@H](CCCNC(=N)N)C(N)=O)NC(=O)[C@H](CCCNC(=N)N)NC(=O)[C@H](CCCCN)NC(=O)[C@H](CCCNC(=N)N)NC(=O)[C@H](CC(C)C)NC(=O)[C@H](CCCCN)NC(=O)[C@H](CCCNC(=N)N)NC1=O) [MyrN-E141-150-amL] |  |  |  | attenuated |  |  | effect of heparin on peptide effect on LDL uptake (WT HepG2 cells [3]): diminished; lowering of plasma total cholesterol (LDLR-KO mice): 15-30%
Myristyl-SH(R8)RKLRKR(S5)LR-NH2 (Myristyl-SH[R8]RKLRKR[S5]LR-NH2; staple 3-10; SMILES CCCCCCCCCCCCCCN[C@@H](CO)C(=O)N[C@@H](Cc1c[nH]cn1)C(=O)N[C@]1(C)CCCCCCC=CCCC[C@@](C)(C(=O)N[C@@H](CC(C)C)C(=O)N[C@@H](CCCNC(=N)N)C(N)=O)NC(=O)[C@H](CCCNC(=N)N)NC(=O)[C@H](CCCCN)NC(=O)[C@H](CCCNC(=N)N)NC(=O)[C@H](CC(C)C)NC(=O)[C@H](CCCCN)NC(=O)[C@H](CCCNC(=N)N)NC1=O) [MyrN-E139-150] |  |  |  |  | 37% | 29% | 
Octanoyl-SH(R8)RKLRKR(S5)LR-NH2 (Octanoyl-SH[R8]RKLRKR[S5]LR-NH2; staple 3-10; SMILES CCCCCCCC(=O)N[C@@H](CO)C(=O)N[C@@H](Cc1c[nH]cn1)C(=O)N[C@]1(C)CCCCCCC=CCCC[C@@](C)(C(=O)N[C@@H](CC(C)C)C(=O)N[C@@H](CCCNC(=N)N)C(N)=O)NC(=O)[C@H](CCCNC(=N)N)NC(=O)[C@H](CCCCN)NC(=O)[C@H](CCCNC(=N)N)NC(=O)[C@H](CC(C)C)NC(=O)[C@H](CCCCN)NC(=O)[C@H](CCCNC(=N)N)NC1=O) [OctaN-E139-150] |  | significantly decreased | significantly decreased |  | 37% | 29% | 
